“And” between values parts separate entries of the source, which are not always exact repeats. Identical values can stand only once. “Also recorded” adds a separate entry of the source.
How the values were obtained:
[1] = test system: CaV1.2 (α1C+β2B) channels in HEK293T cells; experiment: Perforated whole-cell patch clamp of Ba2+ current, forskolin stimulation of CaV1.2 reconstituted in HEK293T cells; assay type: cell-based, rabbit α1C, human β2B, mouse Rad
Description: The robust heterologous reconstitution of PKA regulation of L-type Ca^2+ currents has been long pursued as a crucial step. […] To preserve the normal intracellular milieu and signaling cascades, the inventors used perforated, whole-cell patch clamp to assess function. The inventors used Ba^2+ as the charge carrier to minimize inactivation and depolarized the membrane potential with either a voltage step to 0 mV or a voltage ramp from −60 mV to +60 mV.
In the above, with regard to clone construction and cell culture, all mouse N-terminal-GFP-tagged mouse Rad (accession #XM_006531206) constructs in a pEGFP-C1 vector were generated by gene-synthesis (Gene Universal). The human CaV2.2 (pSAD442-1) was a gift from Diane Lipscombe (Addgene plasmid #62574). HEK293T cells were cultured in DMEM with 10% FBS, 1% Pen/Strep, and transfected with 3 μg rabbit α1C (accession #X15539) or α1B (for CaV2.2 experiments), 3 μg human β2B (NM-201590.3) and 0.5 μg N-terminal-GFP-tagged mouse Rad using Lipofectamine 2000 (Thermo Fisher Scientific). The media was changed 4-6 hours after transfection. The cells were split onto coverslips coated with attachment factor protein (Gibco). Electrophysiological recordings were carried out at room temperature 24-48 hours after transfection.
For HEK293T cell experiments involving the forskolin-induced stimulation of CaV1.2 and CaV2.2 currents, perforated whole-cell patch clamp technique was implemented to minimize current run-down and preserve the intracellular milieu. Amphotericin B (Sigma A9528) was initially dissolved in DMSO (20 mg/ml) and used in the pipette solution at a final concentration of 200 μg/ml. The tip of the pipette was filled with amphotericin-free solution (in mM): 80 Cesium Gluconate, 40 CsCI, 10 HEPES, 10 BAPTA, 1 MgCl2, 1 Mg-ATP, pH adjusted to 7.2 with CsOH. The pipette was backfilled with (in mM): 125 CsCI, 10 HEPES, 4 CaCl2, 1 MgCl2, pH-7.2 with CsOH; containing amphotericin, 200 μg/ml. CaCl2 (4 mM) was added to the intracellular patch electrode solution to enable the detection of conversion from perforated to ruptured configuration. The external solution contained (in mM): 130 tetraethylammonium methanesulfonate, 10 HEPES, 1 MgCl2, 10 (with Rad expression) or 2 (without Rad expression) BaCI2, 5 Glucose, pH adjusted to pH 7.4 with CsOH. For experiments with HEK293T cells, in addition to step protocols, we used a ramp protocol with a 200 ms voltage ramp from −60 mV (or −70 mV for CaV1.3) to +60 mV applied every 10 s- to monitor the near-steady-state I-V relationship. All experiments were performed at room temperature, 22±1° C. Cells were selected based on co-transfection of a vector containing GFP in the absence of Rad, and GFP-conjugated Rad for the experiments with Rad transfected. For both cardiomyocytes and HEK293 cells, cells without a stable baseline (potentially due to run-down or run-up) were not studied.
The voltage steps protocol used in cardiomyocytes studies evaluated IIpeak=Ipeak (V), which was recalculated in […] to G=G(V) as G=I/(V−Erev). For HEK cells experiments, the inventors used a ramp protocol (FIG. 17B). The experimental records were I=I(t), where t=time. The inventors transformed these records to I=I(V), which were then further transformed to G=G(V) in […] (FIG. 17B).

[2] = test system: CaV1.3 (α1D+β2B) channels in HEK293T cells; experiment: Perforated whole-cell patch clamp of Ba2+ current, forskolin stimulation of CaV1.3 in HEK293T cells; assay type: cell-based; details: cells expressing α1D+β2B+Rad
Protocol: In adrenal chromaffin cells and the sinus node cells of the heart, L-type CaV1.3 channels are robustly stimulated by PKA. […] Thus, like CaV1.2, Rad is the missing ingredient. For HEK293T cell experiments involving the forskolin-induced stimulation of CaV1.2 and CaV2.2 currents, perforated whole-cell patch clamp technique was implemented to minimize current run-down and preserve the intracellular milieu. Amphotericin B (Sigma A9528) was initially dissolved in DMSO (20 mg/ml) and used in the pipette solution at a final concentration of 200 μg/ml. The tip of the pipette was filled with amphotericin-free solution (in mM): 80 Cesium Gluconate, 40 CsCI, 10 HEPES, 10 BAPTA, 1 MgCl2, 1 Mg-ATP, pH adjusted to 7.2 with CsOH. The pipette was backfilled with (in mM): 125 CsCI, 10 HEPES, 4 CaCl2, 1 MgCl2, pH-7.2 with CsOH; containing amphotericin, 200 μg/ml. CaCl2 (4 mM) was added to the intracellular patch electrode solution to enable the detection of conversion from perforated to ruptured configuration. […] For experiments with HEK293T cells, in addition to step protocols, we used a ramp protocol with a 200 ms voltage ramp from -60 mV (or -70 mV for CaV1.3) to +60 mV applied every 10 s- to monitor the near-steady-state I-V relationship. All experiments were performed at room temperature, 22±1° C. Cells were selected based on co-transfection of a vector containing GFP in the absence of Rad, and GFP-conjugated Rad for the experiments with Rad transfected. For both cardiomyocytes and HEK293 cells, cells without a stable baseline (potentially due to run-down or run-up) were not studied. The voltage steps protocol used in cardiomyocytes studies evaluated […]), which was recalculated in […] to G=G(V) as […]). For HEK cells experiments, the inventors used a ramp protocol (FIG. 17B). The experimental records were I=I(t), where t=time. The inventors transformed these records to I=I(V), which were then further transformed to G=G(V) in […]). The parameters of voltage-dependent activation were obtained using a modified Boltzmann distribution. […]

[3] = test system: CaV1.2 channels in cardiomyocytes; experiment: Whole-cell patch clamp of nisoldipine-insensitive Ca2+ current in cardiomyocytes of transgenic mice; assay type: cell-based, mouse
Description: With regard to the isolation of adult cardiac myocytes, mice ventricular myocytes were isolated by enzymatic digestion using a Langendorff perfusion apparatus. Cardiomyocytes were isolated from 8-12 week-old non-transgenic and transgenic mice.
With regard to whole cell patch clamp electrophysiology, isolated cardiomyocytes or HEK cells on glass 8×8 mm coverslips were placed in Bioptechs Delta T Dishes filled with solution containing (in mM): 112 NaCl, 5.4 KCl, 1.7 NaH2PO4. 1.6 MgCl2, 20.4 HEPES (pH 7.2), 30 Taurine, 2 DL-Carnitine, 10.3 Creatine, 5.4 Glucose. The petri dishes were mounted on the stage of an inverted microscope and served as a perfusion chamber. After establishing a seal and achieving whole-cell configuration, external solutions were changed by fast local perfusion method.
For cardiomyocytes, pipette resistance was between 1-3 ma Membrane currents were measured by conventional (ruptured) whole-cell patch-clamp method using a MultiClamp 700B or Axopath200B amplifier and pCLAMP 10.7 software (Molecular Devices). Capacitance transients and series resistance were compensated. Voltage was corrected for liquid junction potential (−10 mV) during analysis. Leak currents were subtracted by a P/4 protocol. […]

[4] = test system: CaV2.2 (α1B+β2B) channels in HEK cells; experiment: Perforated whole-cell patch clamp of Ba2+ current, forskolin stimulation of CaV2.2 in HEK cells; assay type: cell-based, human
Description: N-type Ca^2+ channels (CaV2.2) are widely expressed, play an essential role in neurotransmitter release, and are targets for the development of drugs to relieve chronic pain. The inventors expressed the CaV2.2 α1B subunit with β2B and Rad in HEK cells. […] Attenuating binding of Rad […] prevented the forskolin-induced modulation of CaV2.2 current (FIG. 19F). In the above, with regard to clone construction and cell culture, all mouse N-terminal-GFP-tagged mouse Rad (accession #XM_006531206) constructs in a pEGFP-C1 vector were generated by gene-synthesis (Gene Universal). The human CaV2.2 (pSAD442-1) was a gift from Diane Lipscombe (Addgene plasmid #62574). […] The media was changed 4-6 hours after transfection. The cells were split onto coverslips coated with attachment factor protein (Gibco). Electrophysiological recordings were carried out at room temperature 24-48 hours after transfection. For HEK293T cell experiments involving the forskolin-induced stimulation of CaV1.2 and CaV2.2 currents, perforated whole-cell patch clamp technique was implemented to minimize current run-down and preserve the intracellular milieu. Amphotericin B (Sigma A9528) was initially dissolved in DMSO (20 mg/ml) and used in the pipette solution at a final concentration of 200 μg/ml. The tip of the pipette was filled with amphotericin-free solution (in mM): 80 Cesium Gluconate, 40 CsCI, 10 HEPES, 10 BAPTA, 1 MgCl2, 1 Mg-ATP, pH adjusted to 7.2 with CsOH. The pipette was backfilled with (in mM): 125 CsCI, 10 HEPES, 4 CaCl2, 1 MgCl2, pH-7.2 with CsOH; containing amphotericin, 200 μg/ml. CaCl2 (4 mM) was added to the intracellular patch electrode solution to enable the detection of conversion from perforated to ruptured configuration. […] For experiments with HEK293T cells, in addition to step protocols, we used a ramp protocol with a 200 ms voltage ramp from -60 mV (or -70 mV for CaV1.3) to +60 mV applied every 10 s- to monitor the near-steady-state I-V relationship. All experiments were performed at room temperature, 22±1° C. Cells were selected based on co-transfection of a vector containing GFP in the absence of Rad, and GFP-conjugated Rad for the experiments with Rad transfected. For both cardiomyocytes and HEK293 cells, cells without a stable baseline (potentially due to run-down or run-up) were not studied. The voltage steps protocol used in cardiomyocytes studies evaluated […]), which was recalculated in […] to G=G(V) as […]). For HEK cells experiments, the inventors used a ramp protocol (FIG. 17B). The experimental records were I=I(t), where t=time. The inventors transformed these records to I=I(V), which were then further transformed to G=G(V) in […]). The parameters of voltage-dependent activation were obtained using a modified Boltzmann distribution. […]

[5] = test system: CFP-tagged Rad localization in cardiomyocytes; experiment: Confocal fluorescence of CFP-Rad at membrane and in cytosol of cardiomyocytes before and after isoproterenol; assay type: cell-based; details: CFP-Rad adenovirus-infected rat cardiomyocytes; 5 minutes after superfusion
Description: Mass spectrometry identified phosphorylated proteins from biotinylated, streptavidin-purified samples from APEX2 mice, and from whole hearts of wild-type (WT) mice treated with isoproterenol. […] Rad, a member of the RGK family of GTP-binding proteins, is an inhibitor of voltage-gated Ca^2+ channels and is also a PKA target. […] To further explore whether β-agonists can alter membrane-localization of Rad relative, rat cardiomyocytes were infected with adenoviruses harboring cyan fluorescent protein (CFP)-tagged Rad. The fluorescence of CFP-Rad at the membrane and in the cytosol was quantified before and after isoproterenol. The number of exposures were limited to avoid photo-bleaching.

Rad = experiment: Whole cell proteomics (TMT SPS MS3) of non-transgenic cardiomyocytes, isoproterenol vs. no isoproterenol; assay type: cell-based, mouse; details: non-transgenic (NTG) mice cardiomyocytes; 10-minute isoproterenol
Protocol: With regard to whole cell proteomics, specifically cell lysis, protein digest and TMT labeling mass spectrometry analysis, the cells were lysed by homogenization (QIAshredder cartridges, Qiagen) in lysis buffer (2% SDS, 150 mM NaCl, 50 mM Tris pH 7.4). Lysates were reduced with 5 mM DTT, alkylated with 15 mM iodoacetamide for 30 minutes in the dark, alkylation reactions quenched with freshly prepared DTT added to a concentration of 50 mM and proteins precipitated by methanol/chloroform precipitation. Digests were carried out in 1M urea freshly prepared in 200 mM EPPS pH 8.5 in presence of 2% acetonitrile (v/v) with LysC (Wako, 2 mg/ml, used 1:75 w/w protease:substrates during digest) for 3 hours at room temperature and after subsequent addition of trypsin (Promega #V5111, stock 1:100 w/w protease:substrates) over night at 37° C. Missed cleavage rate was assayed from a small aliquot by mass spectrometry. […]
For the mass spectrometry analysis, data collection followed a MultiNotch MS^3 TMT method using an Orbitrap Lumos mass spectrometer coupled to a Proxeon EASY-nLC 1200 liquid chromatography (LC) system (both Thermo Fisher Scientific). […] In order to obtain quantitative information, MS^3 precursors were fragmented by high-energy collision-induced dissociation (HCD) and analyzed in the Orbitrap at a resolution of 50,000 at 200 Th. […]

[6] = test system: Rad in CaV1.2 neighbourhood; experiment: APEX2 proximity labeling with TMT mass spectrometry in Langendorff-perfused α1C-APEX2 hearts; parameters: species or system mouse; details: Langendorff-perfused α1C-APEX2 whole hearts; 1 μM isoproterenol, 5 minutes
Protocol: The inventors also probed the impact of isoproterenol on the CaV1.2 proteome signature in Langendorff-perfused whole hearts (FIG. 9B), tracking 2,610 proteins from 10 hearts in parallel (FIG. 6K, FIG. 15C and FIG. 16A). The inventors monitored phospholamban phosphorylation to confirm that the β-adrenergic signaling pathway in cardiomyocytes is preserved in the presence of biotin-phenol and H2O2 (FIG. 14C and FIG. 14D).
For biotinylation in Langendorff-perfused hearts, mice were injected with 5 mg/kg propranolol-HCl (Sigma PHR1308) to suppress adrenergic stimulation during the isoflurane anesthesia and cardiectomy. Hearts were retrograde perfused with Krebs' solution for 10 minutes prior to addition of biotin-phenol for 15 minutes. During the final 5 minutes, 1 μM Isoproterenol (Sigma 1351005) or vehicle was added to the perfusate. The hearts were then perfused with 1 mM H2O2 for 1 minute, followed by 3-minutes of perfusion of quenching solution. Electrocardiograms were monitored throughout the experiment to ensure viability of the preparation and an isoproterenol-induced increase in heart rate. […]

[7] = test system: CaV1.2 neighbourhood proteins (Rad, PKA catalytic subunit, Sorbs2); experiment: APEX2 proximity labeling with TMT SPS MS3 in isolated cardiomyocytes, isoproterenol vs. no isoproterenol; assay type: cell-based, mouse; details: for decrease in Rad (proximity labeling, iso vs. no iso) / increase in PKA catalytic subunit (proximity labeling, iso vs. no iso): 1 μM isoproterenol, 10 minutes
Protocol: Thus, proximity-labeling in cardiomyocytes treated with isoproterenol was compared to untreated controls. Cardiomyocytes were enzymatically isolated from two α1C-APEX2 mice, mixed, loaded with biotin-phenol and exposed to isoproterenol or vehicle for 10 minutes at room temperature. For the final minute, labeling was initiated with H2O2. This was repeated for myocytes from 4 additional sets of mice (total: 5 sets of biological replicates; 10 mice). Biotinylated proteins were purified and detected using TMT SPS MS^3. The isobaric labeling allowed simultaneous quantification of all proteins measured rather than just a select subset, thus enabling statistical analysis of relative enrichment between vehicle and isoproterenol treatment. Candidates in the upper left quadrant have reduced labeling (likely indicating reduced proximity) after isoproterenol and candidates in the upper right quadrant have increased labeling (likely indicating increased proximity) after isoproterenol. Mitochondrial/nuclear proteins were removed from the analysis.
For the proximity labeling, isolated ventricular cardiomyocytes were incubated in labeling solution with 0.5 μM biotin-phenol (Iris-biotech) for 30 minutes. During the final 10 minutes of labeling, 1 μM isoproterenol (Sigma 15627) was added. To initiate labeling, H2O2 (Sigma H1009) was added to a final concentration of 1 mM for 1 min Exactly 1 minute after H2O2 treatment, the cells were washed three times with cold quenching solution containing (in mM) 10 Sodium ascorbate (VWR 95035-692), 5 Trolox (Sigma 238813), and 10 Sodium azide (Sigma S2002). After the cells were harvested by centrifugation, the quenching solution was aspirated and the pellet was flash-frozen and stored at −80° C. until streptavidin pull-down.
With regard to the processing of biotinylated proteins for mass spectrometry, proteins were precipitated with Trichloroacetic acid (TCA; Sigma T9159) and then centrifuged at 21,130×g at 4° C. for 10 minutes. The pellet was washed with −20° C. cold acetone (Sigma 650501), vortexed, and centrifuged at 21,130×g at 4° C. for 10 minutes. Following centrifugation, acetone was aspirated and the pellet was acetone-washed again three more times.

[8] = HEK cells expressing 35-mutant α1C+28-mutant β2B+Rad
[9] = cells expressing α1C+β2B+Rad, forskolin vs. no forskolin
[10] = CaV2.2 α1B+β2B co-expressed with Rad
[11] = CaV2.2 α1B+β2B co-expressed with Rem

Structure (SMILES): C=C[C@@]1(C)CC(=O)[C@]2(O)[C@@]3(C)[C@@H](O)CCC(C)(C)[C@@H]3[C@H](O)[C@H](OC(C)=O)[C@@]2(C)O1 [forskolin]
- increase of Gmax, as much as [1, 8]: ≤ 3.1 fold
- increase of Gmax, mean [1, 8]: 1.9 fold
- shift of V50 for activation [1, 8]: −3.3 mV
- increase of Gmax, mean ([1]; cells expressing 9*-α1C, β2B and Rad): 1.6 fold
- shift of V50 for activation ([1]; cells expressing α1C+β2B+Rad): −5 mV
- increase of maximal conductance (Gmax), as much as [1, 9]: ≤ 4.5 fold
- increase of maximal conductance (Gmax), mean [1, 9]: 1.5 fold and 1.6 fold
- increase of Gmax, as much as [2]: ≤ 2.3 fold
- increase of Gmax, mean [2]: 1.9 fold
- shift of V50 for activation [2]: −4.3 mV
- increase of Gmax, mean ([3]; 9* exon-containing CaV1.2 channels): 1.4 fold
- increase of nisoldipine-insensitive maximal conductance (Gmax), mean ([3]; transgenic pWT α1C cardiomyocytes, 10 μM forskolin): 1.4 fold
- increase of Gmax, mean [4, 10]: 2.2 fold
- shift of V50 for activation [4, 10]: −3.7 mV
- increase of Gmax [4, 11]: 1.6 fold
- shift of V50 for activation [4, 11]: −4.2 mV

Structure (SMILES): CC(C)NCC(O)c1ccc(O)c(O)c1 (centres unmarked) [isoproterenol]
- decrease of Rad localized at the membrane [5]: 21%±3%
- increase of cytosolic Rad [5]: 20%±5%
- effect on the amount of Rad (whole-cell, not proximity labeled) (Rad): no significant effect; also recorded: unchanged
- decrease in Rad (proximity labeling, iso vs. no iso) [6]: 36%
- decrease in the amount of Rad, all three approaches ([7]; α1C-APEX2 and β2B-APEX2 cardiomyocytes and α1C-APEX2 whole hearts): 30-50%
- decrease in Rad (proximity labeling, iso vs. no iso) ([7]; α1C-APEX2 cardiomyocytes): ~50%
- increase in PKA catalytic subunit (proximity labeling, iso vs. no iso) ([7]; α1C-APEX2 cardiomyocytes): 50%
- reduction in Sorbin and SH3 domain containing 2 (Sorbs2) ([7]; α1C-APEX2 cardiomyocytes, isoproterenol 10 minutes): ~57%
- decrease in Rad (proximity labeling, iso vs. no iso) ([7]; β2B-APEX2 cardiomyocytes): 30%
- increase in PKA catalytic subunit (proximity labeling, iso vs. no iso) ([7]; β2B-APEX2 cardiomyocytes): 68%
